pKi: −log10 of the molar value.

In the assay the target is T1, HCV genotype 1b (BK) NS3 modified with a R155K mutation (Hepatitis C virus genotype 1b, UniProt P26663, R1181K).
T1 construct: HCV genotype 1b (BK) NS3 modified with a R155K mutation
Nature of the assay: HCV NS3 protease time-resolved fluorescence (TRF) assay, NS3 protease 1b R155K Ki activity. In kind it is biochemical. The note with it: HCV genotype 1b (BK) NS3 with R155K mutation; TRF peptide substrate 100 nM; Ki derived from IC50. The method, then:
The HCV NS3 protease inhibitory activity of the present compounds may be tested using assays known in the art. One such assay is HCV NS3 protease time-resolved fluorescence (TRF) assay as described below and in International Patent Application Publication WO 2006/102087. Other examples of such assays are described in e.g., International Patent Application Publication WO 2005/046712.
A NS3 protease assay can be performed, for example, in a final volume of 100 μl assay buffer containing 50 mM HEPES, pH 7.5, 150 mM NaCl, 15% glycerol, 0.15% TRITON X-100, 10 mM DTT, and 0.1% PEG 8000. NS3 and NS4A protease is pre-incubated with various concentrations of inhibitors in DMSO for 30 minutes. The reaction is initiated by adding the TRF peptide substrate (final concentration 100 nM). NS3 mediated hydrolysis of the substrate is quenched after 1 hour at room temperature with 100 μl of 500 mM MES, pH 5.5. Product fluorescence is detected using either a VICTOR V2 or FUSION fluorophotometer (Perkin Elmer Life and Analytical Sciences) with excitation at 340 nm and emission at 615 nm with a 400 μs delay. Testing concentrations of different enzyme forms are selected to result in a signal to background ratio (S/B) of 10-30. IC50 values are derived using a standard four-parameter fit to the data. Ki values are derived from IC50 values using the following formula, IC50=Ki(1+[S]/KM), Eqn (1), where [S] is the concentration of substrate peptide in the reaction and KM is the Michaelis constant. See P. Gallinari et al., 38 BIOCHEM. 5620-32 (1999); P. Gallinari et al., 72 J. VIROL. 6758-69 (1998); M. Taliani et al., 240 ANAL. BIOCHEM. 60-67 (1996).
The HCV NS3 protease inhibitory activity was measured using the protease time-resolved fluorescence (TRF) assay as described below and in International Patent Application Publication WO 2006/102087. The assay was performed with HCV genotype 1b (BK) NS3 modified with a R155K mutation.
The assay was performed in a final volume of 100 μl in assay buffer containing 50 mM HEPES, pH 7.5, 150 mM NaCl, 15% glycerol, 0.15% TRITON X-100, 10 mM DTT, and 0.1% PEG 8000. NS3 and NS4A protease is pre-incubated with various concentrations of inhibitors in DMSO for 30 minutes. The reaction is initiated by adding the TRF peptide substrate (final concentration 100 nM). NS3 mediated hydrolysis of the substrate is quenched after 1 hour at room temperature with 100 μl of 500 mM MES, pH 5.5. Product fluorescence is detected using either a VICTOR V2 or FUSION fluorophotometer (Perkin Elmer Life and Analytical Sciences) with excitation at 340 nm and emission at 615 nm with a 400 μs delay. Testing concentrations of the enzyme containing the R155K mutation were selected to result in a signal to background ratio (S/B) of 10-30. IC50 values are derived using a standard four-parameter fit to the data. Ki values are derived from IC50 values using the following formula, IC50=Ki(1+[S]/KM), Eqn (1), where [S] is the concentration of substrate peptide in the reaction and KM is the Michaelis constant. See P. Gallinari et al., 38 BIOCHEM. 5620-32 (1999); P. Gallinari et al., 72 J. VIROL. 6758-69 (1998); M. Taliani et al., 240 ANAL. BIOCHEM. 60-67 (1996).
`C=C[C@@H]1C[C@]1(NC(=O)[C@@H]1C[C@@H]2CN1C(=O)[C@H](C1CCCC1)NC(=O)O[C@@H]1CCC[C@H]1C/C=C/Cn1c(cc3ccccc3c1=O)O2)C(=O)NS(=O)(=O)C1CC1` showed a pKi of 9.30 to 10.00.
As to `C=C[C@@H]1C[C@]1(NC(=O)[C@@H]1C[C@@H]2CN1C(=O)[C@H](C1CCCC1)NC(=O)O[C@@H]1CCC[C@H]1CC1CC1CCn1c(cc3cc(Cl)ccc3c1=O)O2)C(=O)NS(=O)(=O)C1CC1` (stereo partly shown), the negative-log Ki (pKi) was 9.30 to 10.00.
With `C=C[C@@H]1C[C@]1(NC(=O)[C@@H]1C[C@@H]2CN1C(=O)[C@H](C1CCCC1)NC(=O)O[C@@H]1CCC[C@H]1CCCC1CC1Cn1c(cc3ccccc3c1=O)O2)C(=O)NS(=O)(=O)C1CC1` (stereo partly shown), the pKi is 9.00 to 9.30.
In turn, `CC[C@@H]1C[C@]1(NC(=O)[C@@H]1C[C@@H]2CN1C(=O)[C@H](C1CCCC1)NC(=O)O[C@@H]1CCC[C@H]1CC/C=C/Cn1c(nc3cc(C)ccc3c1=O)O2)C(=O)NS(=O)(=O)C1CC1` [(1R,14E,18S,22R,26S,29S)-26-cyclopentyl-N-((1R,2R)-1-{[(cyclopropylsulfonyl)amino]carbonyl}-2-ethylcyclopropyl)-7-methyl-11,24,27-trioxo-2,23-dioxa-4,12,25,28-tetraazapentacyclo[26.2.1.0^3,12.0^5,10.0^18,22]hentriaconta-3,5,7,9,14-pentaene-29-carboxamide] gave a negative logarithm of the Ki (pKi) of 9.30 to 10.00.
For `C=C[C@@H]1C[C@]1(NC(=O)[C@@H]1C[C@@H]2CN1C(=O)[C@H](C1CCCC1)NC(=O)O[C@@H]1CCC[C@H]1CCCCCn1c(ccc(Br)c1=O)O2)C(=O)NS(=O)(=O)C1CC1` [(1R,14R,18R,22S,25S)-6-bromo-22-cyclopentyl-N-((1R,2S)-1-{[(cyclopropylsulfonyl)amino]carbonyl}-2-vinylcyclopropyl)-7,20,23-trioxo-2,19-dioxa-8,21,24-triazatetracyclo[22.2.1.0^3,8.0^14,18]heptacosa-3,5-diene-25-carboxamide], the pKi was 9.30 to 10.00.
The compound `C=C[C@@H]1C[C@]1(NC(=O)[C@@H]1C[C@@H]2CN1C(=O)[C@H](C1CCCC1)NC(=O)O[C@@H]1CCC[C@H]1CCCCCn1c(cccc1=O)O2)C(=O)NS(=O)(=O)C1CC1` [(1R,14R,18R,22S,25S)-22-cyclopentyl-N-((1R,2S)-1-{[(cyclopropylsulfonyl)amino]carbonyl}-2-vinylcyclopropyl)-7,20,23-trioxo-2,19-dioxa-8,21,24-triazatetracyclo[22.2.1.0^3,8.0^14,18]heptacosa-3,5-diene-25-carboxamide] had a negative logarithm of the Ki (pKi) of 9.30 to 10.00.
In the case of `C=C[C@@H]1C[C@]1(NC(=O)[C@@H]1C[C@@H]2CN1C(=O)[C@H](C1CCCC1)NC(=O)O[C@@H]1CCC[C@H]1CCCCCn1c(ccc(-c3ccccc3)c1=O)O2)C(=O)NS(=O)(=O)C1CC1` [(1R,14R,18R,22S,25S)-22-cyclopentyl-N-((1R,2S)-1-{[(cyclopropylsulfonyl)amino]carbonyl}-2-vinylcyclopropyl)-7,20,23-trioxo-6-phenyl-2,19-dioxa-8,21,24-triazatetracyclo[22.2.1.0^3,8.0^14,18]heptacosa-3,5-diene-25-carboxamide] it was 9.30 to 10.00.
In the case of `C=C[C@@H]1C[C@]1(NC(=O)[C@@H]1C[C@@H]2CN1C(=O)[C@H](C1CCCC1)NC(=O)O[C@@H]1CCC[C@H]1CCCCCn1c(nc3cc(Cl)ccc3c1=O)O2)C(=O)NS(=O)(=O)C1(C)CC1` [(1R,18R,22R,26S,29S)-7-chloro-26-cyclopentyl-N-[(1R,2S)-1-({[(1-methylcyclopropyl)sulfonyl]amino}carbonyl)-2-vinylcyclopropyl]-11,24,27-trioxo-2,23-dioxa-4,12,25,28-tetraazapentacyclo[26.2.1.0^3,12.0^5,10.0^18,22]hentriaconta-3,5,7,9-tetraene-29-carboxamide] it was > 10.00; in that of `C=C[C@@H]1C[C@]1(NC(=O)[C@@H]1C[C@@H]2CN1C(=O)[C@H](C1CCCC1)NC(=O)O[C@@H]1CCC[C@H]1CCCCCn1c(nc3cc(OC)ccc3c1=O)O2)C(=O)NS(=O)(=O)C1(C)CC1` [(1R,18R,22R,26S,29S)-26-cyclopentyl-7-methoxy-N-[(1R,2S)-1-({[(1-methylcyclopropyl)sulfonyl]amino}carbonyl)-2-vinylcyclopropyl]-11,24,27-trioxo-2,23-dioxa-4,12,25,28-tetraazapentacyclo[26.2.1.0^3,12.0^5,10.0^18,22]hentriaconta-3,5,7,9-tetraene-29-carboxamide], > 10.00.
In the case of `CC[C@@H]1C[C@]1(NC(=O)[C@@H]1C[C@@H]2CN1C(=O)[C@H](C1CCCC1)NC(=O)O[C@@H]1C[C@H]1CCCCCn1c(cc3ccccc3c1=O)O2)C(=O)NS(=O)(=O)C1CC1` [(1aR,5S,8S,10R,23aR)-5-cyclopentyl-N-((1R,2R)-1-{[(cyclopropylsulfonyl)amino]carbonyl}-2-ethylcyclopropyl)-3,6,17-trioxo-1,1a,3,4,5,6,9,10,19,20,21,22,23,23a-tetradecahydro-8H,17H-7,10-methanocyclopropa[18,19][1,10,3,6,12]dioxatriazacyclononadecino[12,11-b]isoquinoline-8-carboxamide] it was 9.30 to 10.00.
With `C=C[C@@H]1C[C@]1(NC(=O)[C@@H]1C[C@@H]2CN1C(=O)[C@H](C1CCCC1)NC(=O)O[C@@H]1C[C@H]1CCCCCn1c(cc3ccccc3c1=O)O2)C(=O)NS(=O)(=O)C1CC1` [(1aR,5S,8S,10R,23aR)-5-cyclopentyl-N-((1R,2S)-1-{[(cyclopropylsulfonyl)amino]carbonyl}-2-vinylcyclopropyl)-3,6,17-trioxo-1,1a,3,4,5,6,9,10,19,20,21,22,23,23a-tetradecahydro-8H,17H-7,10-methanocyclopropa[18,19][1,10,3,6,12]dioxatriazacyclononadecino[12,11-b]isoquinoline-8-carboxamide], the pKi is > 10.00.
In turn, `CC[C@@H]1C[C@]1(NC(=O)[C@@H]1C[C@@H]2CN1C(=O)[C@H](C1CCCC1)NC(=O)O[C@H]1C[C@@H]1CCCCCn1c(cc3ccccc3c1=O)O2)C(=O)NS(=O)(=O)C1CC1` [(1aS,5S,8S,10R,23aS)-5-cyclopentyl-N-((1R,2R)-1-{[(cyclopropylsulfonyl)amino]carbonyl}-2-ethylcyclopropyl)-3,6,17-trioxo-1,1a,3,4,5,6,9,10,19,20,21,22,23,23a-tetradecahydro-8H,17H-7,10-methanocyclopropa[18,19][1,10,3,6,12]dioxatriazacyclononadecino[12,11-b]isoquinoline-8-carboxamide] gave a pKi of 9.30 to 10.00.
In the case of `C=C[C@@H]1C[C@]1(NC(=O)[C@@H]1C[C@@H]2CN1C(=O)[C@H](C1CCCC1)NC(=O)O[C@H]1C[C@@H]1CCCCCn1c(cc3ccccc3c1=O)O2)C(=O)NS(=O)(=O)C1CC1` [(1aS,5S,8S,10R,23aS)-5-cyclopentyl-N-((1R,2S)-1-{[(cyclopropylsulfonyl)amino]carbonyl}-2-vinylcyclopropyl)-3,6,17-trioxo-1,1a,3,4,5,6,9,10,19,20,21,22,23,23a-tetradecahydro-8H,17H-7,10-methanocyclopropa[18,19][1,10,3,6,12]dioxatriazacyclononadecino[12,11-b]isoquinoline-8-carboxamide] it was 9.30 to 10.00.

The values are drawn from patent publication US8461107B2 (Merck Sharp & Dohme Corp., priority 2008, dated 2013).
